The values that follow come from patent US20250185666A1, “Root-Targeted Delivery of Agrochemicals using Natural Microbial Carriers” (priority 2023, published 2025).

Several values for one entry are separate records, joined by “and”; a condition that tells them apart may be missing. Equal values may be shown once. Marks after values point to notes of the source that are not given here.

One series deals with UC-1 cultures. Briefly: Screen of candidate formulations for operational toxicity to UC-1 cultures. The settings on record: concentrated formulation.
The test system of another series is Spodoptera frugiperda. Briefly: Maize leaf fall armyworm damage assay after seed treatment (feeding damage and FAW mortality). The format is in vivo. On the set-up: Regression for feeding damage by leaf segment, Leaf 3 Middle / Regression for feeding damage by leaf segment, Leaf 3 Tip / Regression for feeding damage by leaf segment, Leaf 4 Middle / Regression for feeding damage by leaf segment, Leaf 4 Tip / Regression for feeding damage by leaf segment, Leaf 5 Middle / Regression for feeding damage by leaf segment, Leaf 5 Tip: unit not given here. The settings on record: for Regression for feeding damage by leaf segment, Leaf 3 Middle / Regression for feeding damage by leaf segment, Leaf 3 Tip / Regression for feeding damage by leaf segment, Leaf 4 Middle / Regression for feeding damage by leaf segment, Leaf 4 Tip / Regression for feeding damage by leaf segment, Leaf 5 Middle / Regression for feeding damage by leaf segment, Leaf 5 Tip: coefficient vs Baseline; for Regression for FAW mortality rate (coefficient) / Regression for overall feeding damage (coefficient): vs Baseline, controls for experimental run and tray location; for Regression for FAW mortality rate (coefficient): across six leaf segments per plant; for Regression for overall feeding damage (coefficient): averaged across six leaf segments per plant. As for the experimental part: An experiment was designed to measure any systemic effects of soil protists in the presence and absence of (agrochemical) insecticide on pest damage resistance for plants grown from seeds. The experiments consisted of two stages: the growth stage and the pest stage. In the growth stage, maize seeds were treated individually with one of six mixtures containing bacteria, protists, and or/agrochemicals. All treatments included heat-killed bacteria, the food source for protists (protozoa). Additional potential components of each treatment were one of two agrochemicals, or soil protists, or one of two agrochemicals plus soil protists (Table 1). Treated seeds were germinated and grown in soil-filled pots in a greenhouse. Plants were grown in surplus quantities and down-selected to 48 representative plants per treatment for each experimental run (Table 2).
In the pest stage, three individual leaves were harvested from each plant, then the Tip and Middle segments of said leaves were collected. Each of the six leaf segments from the plant were placed in individual tray wells and challenged by a single insect larva, as explained further below.
Formulations for seed treatments (Table 1) were prepared in Page's Saline 24 h prior to inoculation and held at 23° C. in darkness. Prior to application, each formulation was vortexed for 30 sec then a small aliquot (50 μL) was added directly on top of each exposed seed during planting. Based on our prior experience, this small-volume-aliquot performs similarly to more conventionally formulated seed coatings, enabling early-stage screening of experimental formulations that are available only in limited quantities.
For each experimental run, 240 pots (10-cm, TLC Square Form Pots, HC Companies) were first filled with dry, steam pasteurized screened field soil (Kalamazoo, Michigan; Coloma loamy sand). The soil was misted with water with an automated system to reach field capacity in the Corteva Agriscience greenhouse located in Indianapolis, IN for at least 4 d prior to planting. Next, 3.8 cm deep, 2 cm wide holes were created in the center of each soil-filled pots, and a single seed was placed tip cap side down 3.8 cm below the soil surface. Each seed was immediately inoculated with a seed treatment (described above, n=60 per treatment). Treated pots were then randomized in the greenhouse to reduce systematic error (FIG. 1A). The greenhouse averaged 23° C. (maximum of 30° C. day and minimum of 19° C. at night). The plants received 100 mL water from the automated system, split over 49 passes, during the first week after planting, and 200 mL water split over 98 passes during the second week after planting.
Leaf segments were harvested on 48 representative plants selected from the 60 pots per treatment (FIG. 1A). Trays were filled in a semi-random fashion with less optimal plants at the end of tray 3 and the most underdeveloped plants being discarded. Plants were numbered as they were selected during the Leaf 3 harvest, and tracked through the harvest of Leaves 4 and 5 for robustness. Maize leaves are labelled according to the order they sprout. Maize was allowed to grow for 10 d before harvesting Leaf 3 and left for another 4 d (14 d total) before harvesting Leave 4, 5 (FIG. 1B). Leaves were segmented with the distal 3.8 cm labelled as Tip. Leaf Middle segments were harvested as a 3.8-cm segment from the middle of the leaf. For smaller leaves (such as the earlier-harvested Leaf 3), the Middle abutted the Tip. For larger leaves (4th and 5th), any section between Tip and Middle segments was discarded. For agrochemicals which translocate, such as those tested here, the agrochemical accumulates in the leaf Tips. By testing both leaf Tip and Middle, the relative amount of agrochemical moved by phloem or xylem transport since the leaf sprouted can be measured (Tip) along with the agrochemical in the process of transportation during harvest (Middle). […]

Series [1] in a line: Transport of 14C-labeled Chlorantraniliprole in maize (autoradiography, combustion analysis). The settings on record: maize (Zea mays L.), in vivo, 7 d. As for the experimental part: A scaled-up version of the μ-rhizoslide was developed to work with maize. First, ^14C-labeled agrochemical was dissolved in acetone, spiked onto the wall of a glass sample vial, and the acetone evaporated. Un-radiolabeled agrochemical formulation was then added to the vial and sonicated for 20 min to distribute the ^14C-labeled material into the formulation. The formulation was then mixed with Page's Saline containing heat-killed E. coli, or with Page's Saline containing both protists and heat-killed E. coli to prepare the seed treatments formulation. As described before, the ^14C-labeled seed treatment formulations were allowed to rest in darkness for 24 h prior to application. Final radioactivity was measured at approximately 300,000 DPM per individual seed treatment. Pots were filled, and seeds planted and treated as described above. Plants were harvested at 1 week due to restricted space for work with radiolabeled material. […]
A similar experiment was conducted using ^14C-labeled Chlorantraniliprole, differing in the allocated growth period (7 vs 14 d), watering schedule (due to limitations of radioactive containment), and pot (3D printed device optimized for radio-detection vs traditional 4.5″ pot). Radioactivity in both the plant material and the soil were measured before combustion analysis was conducted on the plant material.

Where [2] appears, read: Table 6 (Chlorantraniliprole data set).

Text for UC-1 cultures: Finally, candidate formulations were screened for operational toxicity to UC-1 cultures (i.e., live protists in a concentrated formulation should remain viable and actively moving). […] Both agrochemicals were used in their like-commercial formulations, which is a proprietary blend containing biocides and other ingredients needed to keep the agrochemical suspended and maintain performance.

Regarding `CNC(=O)c1cc(Cl)cc(C)c1NC(=O)c1cc(Br)nn1-c1ncccc1Cl` [Chlorantraniliprole, chlorantraniliprole], in the series on UC-1 cultures, the “Operational toxicity to UC-1 cultures (live protists remain viable and actively moving)” value is recorded as “satisfied all criteria”. In the series with Spodoptera frugiperda (setting [2]), the “Regression for feeding damage by leaf segment, Leaf 3 Middle” value is given as −36.100***; the “Regression for feeding damage by leaf segment, Leaf 3 Tip” value is given as −65.841***; the “Regression for feeding damage by leaf segment, Leaf 4 Middle” value was −6.424**; the “Regression for feeding damage by leaf segment, Leaf 4 Tip” value is −46.026***. For the same compound, in the series with Spodoptera frugiperda (setting [2]), the “Regression for feeding damage by leaf segment, Leaf 5 Middle” value is given as −2.566 and the “Regression for feeding damage by leaf segment, Leaf 5 Tip” value is −34.783***. Also, in the series with Spodoptera frugiperda (in vivo), the “Reduction of feeding damage from Baseline, Leaf 4 Middle” value stood at 7.2 percentage points and the “Reduction of feeding damage from Baseline, Leaf 5 Middle” value was found to be 3.5 percentage points. Further, in the series on Spodoptera frugiperda (leaf harvested 14 d), the “Feeding damage, Leaf 4 Middle” value is 86% and 86.4%; the “Feeding damage, Leaf 4 Tip” value is reported as 49%; the “Feeding damage, Leaf 5 Middle” value was found to be 88%. Also, in the series with Spodoptera frugiperda, the “Regression for FAW mortality rate (coefficient)” value is listed as 20.341*** and the “Regression for overall feeding damage (coefficient)” value is given as −31.836***. Moreover, in series [1], the “Distribution of 14C-labeled Chlorantraniliprole in plant parts” value is given as “higher concentration of Chlorantraniliprole in earlier parts (stem, Leaf 1)”.

Take Spinosad: in the series with Spodoptera frugiperda (Table 7 (Spinosad data set)), the “Regression for feeding damage by leaf segment, Leaf 3 Middle” value is given as −45.225***; the “Regression for feeding damage by leaf segment, Leaf 3 Tip” value was −59.140***; the “Regression for feeding damage by leaf segment, Leaf 4 Middle” value was −40.880***; the “Regression for feeding damage by leaf segment, Leaf 4 Tip” value is on record as −59.365***. Besides, in the series with Spodoptera frugiperda (Table 7 (Spinosad data set)), the “Regression for feeding damage by leaf segment, Leaf 5 Middle” value is −10.627*** and the “Regression for feeding damage by leaf segment, Leaf 5 Tip” value was −29.736***. Also, in the series on Spodoptera frugiperda (in vivo), the “Reduction of feeding damage from Baseline, Leaf 4 Tip” value stood at 58.5 percentage points and the “Reduction of feeding damage from Baseline, Leaf 5 Middle” value stood at 9.5 percentage points. Further, in the series with Spodoptera frugiperda (leaf harvested 14 d), the “Feeding damage, Leaf 4 Tip” value is about 35.0% and the “Feeding damage, Leaf 5 Middle” value is recorded as about 82.2%. In the series on Spodoptera frugiperda, the “Regression for FAW mortality rate (coefficient)” value is 33.342*** and the “Regression for overall feeding damage (coefficient)” value is −39.981***.
